Measured values reported in ChEMBL document CHEMBL5608207, “Development of narrow-spectrum topoisomerase-targeting antibacterials against mycobacteria” (Eur J Med Chem, 2024).
pIC50: −log10 of the molar value. Converted amounts (≈) assume the structure as drawn. The source made the active and inactive calls. The rule behind the calls is not given here.

Columns and labels:
[1] = tested on: Mycolicibacterium smegmatis; assay: Antimycobacterial activity against Mycobacterium smegmatis MC2 incubated for 2 days by resazurin reduction microplate assay; format: functional; details: MC2, 48 h, time 2 day
[2] = tested on: Mycobacteroides abscessus; assay: Antimycobacterial activity against Mycobacterium abscessus RIVM incubated for 1 day by resazurin reduction microplate assay; format: functional; details: 24 h
[3] = tested on: Mycobacterium tuberculosis; assay: Antimycobacterial activity against Mycobacterium tuberculosis H37Rv ATCC 25618 assessed as reduction in viability incubated for 6 days by resazurin reduction microplate assay; format: functional; details: H37Rv ATCC 25618, 144 h, time 6 day
Escherichia coli [4] = assay: Antibacterial activity against Escherichia coli ATCC 25922 incubated for 18 hrs by serial broth microdilution method; format: functional
Staphylococcus aureus = assay: Antibacterial activity against Staphylococcus aureus ATCC 29213 incubated for 18 hrs by serial broth microdilution method; format: functional
Pseudomonas aeruginosa [5] = assay: Antibacterial activity against Pseudomonas aeruginosa ATCC 27853 incubated for 18 hrs by serial broth microdilution method; format: functional
Acinetobacter baumannii [6] = assay: Antibacterial activity against Acinetobacter baumannii ATCC17978 incubated for 18 hrs by serial broth microdilution method; format: functional
Klebsiella pneumoniae = assay: Antibacterial activity against Klebsiella pneumoniae ATCC10031 incubated for 18 hrs by serial broth microdilution method; format: functional
Enterobacter cloacae = assay: Antibacterial activity against Enterobacter cloacae ATCC13047 incubated for 18 hrs by serial broth microdilution method; format: functional
[7] = target: DNA topoisomerase 2-alpha (Homo sapiens) (UniProt P11388); assay: Inhibition of human DNA topoisomerase II alpha assessed as residual activity at 100 uM using supercoiled pNO1 plasmid as substrate incubated for 30 mins by diamond dye staining based fluorescence microplate reader assay relative to control
[8] = target: DNA topoisomerase 2-alpha (Homo sapiens) (UniProt P11388); assay: Inhibition of human DNA topoisomerase II alpha assessed as residual activity at 10 uM using supercoiled pNO1 plasmid as substrate incubated for 30 mins by diamond dye staining based fluorescence microplate reader assay relative to control
THP-1 [9] = assay: Cytotoxicity against human THP-1 cells assessed as reduction in viability at 40 uM pretreated with PMA for 48 hrs followed by washout and compound addition for 5 days by resazurin sodium salt method; format: toxicity, cell-based; details: thp-1, 120 h, time 5 day
THP-1 [10] = assay: Cytotoxicity against replicating human THP-1 cells upto 40 uM; format: toxicity, cell-based; details: thp-1, 40 µM
[11] = tested on: Mycobacterium tuberculosis; assay: (§1) Antimycobacterial activity against GFP-expressing Mycobacterium tuberculosis H37Rv infected in PMA-treated THP-1 cells assessed as bacterial viability pre-infected for 3 hrs prior to gentamycin addition for 1 hr followed by washout and compound addition measured after 4 days by fluorescence microscopic analysis; format: functional, organism-based; details: dose 1-30 µM, time 4.0 day
[12] = tested on: Mycobacterium tuberculosis; assay: as §1, with “increase in number of surviving macrophages at 1 to 30 uM” for “bacterial viability”; format: functional, organism-based; details: dose 1-30 µM, time 4.0 day
Escherichia coli [13] = assay: Antibacterial activity against Escherichia coli ATCC 25922 harboring deltaTolC mutant incubated for 18 hrs by serial broth microdilution method; format: functional
Segatella copri = assay: Antibacterial activity against Prevotella copri DSM 18205 measured at 15 mins interval for 24 hrs by broth microdilution method; format: functional
[14] = tested on: Bacteroides thetaiotaomicron; assay: Antibacterial activity against Bacteroides thetaiotaomicron DSM 2079 measured at 15 mins interval for 24 hrs by broth microdilution method; format: functional
Anaerostipes hadrus = assay: Antibacterial activity against Anaerostipes hadrus DSM 3319 measured at 15 mins interval for 24 hrs by broth microdilution method; format: functional
[15] = Acute toxicity in zebrafish embryo assessed as effect on embryo survival upto 5 mM measured for 4 days; design: species or system Danio rerio; details: in vivo, 96 h, 5000 µM, time 4 day
[16] = Acute toxicity in zebrafish embryo assessed as effect on embryo development upto 5 mM measured for 4 days; design: species or system Danio rerio; details: in vivo, 96 h, 5000 µM, time 4 day
[17] = Acute toxicity in zebrafish embryo assessed as change in behavior upto 5 mM measured for 4 days; design: species or system Danio rerio; details: in vivo, 96 h, 5000 µM, time 4 day
[18] = Kinetic solubility of compound in PBS at 100 uM incubated for 20 hrs in shaker by LC-MS/MS analysis; format: physicochemical; details: read-out: Kinetic_solubility
[19] = Protein binding in human plasma assessed as free fraction at 10 uM incubated for 4 hrs by rapid equilibrium dialysis based LC-MS/MS method; format: ADME, cell-free
[20] = Protein binding in mouse plasma assessed as free fraction at 10 uM incubated for 4 hrs by rapid equilibrium dialysis based LC-MS/MS method; format: ADME, cell-free
[21] = tested on: Mycobacterium tuberculosis; assay: Antimycobacterial activity against Mycobacterium tuberculosis H37Rv ATCC 25618 assessed as reduction in viability at 5 uM incubated for 6 days by resazurin reduction microplate assay; format: functional
[22] = tested on: Mycobacterium tuberculosis; assay: as §1, with “viability at 10 uM” for “viability”, “analysis (reference value: 100%)” for “analysis”; format: functional; details: time 4 day
[23] = tested on: Mycobacterium tuberculosis; assay: as §1, with “number of viable macrophages at 10 uM” for “bacterial viability”; format: functional; details: time 4.0 day
THP-1 [24] = assay: Cytotoxicity against human THP-1 cells pretreated with PMA for 48 hrs followed by washout and compound addition for 5 days by resazurin sodium salt method; format: toxicity, cell-based; details: thp-1, 120 h, time 5 day
THP-1 [25] = assay: Cytotoxicity against replicating human THP-1 cells; format: toxicity, cell-based
[26] = Inhibition of Mycobacterium tuberculosis DNA gyrase B
Pseudomonas aeruginosa [27] = assay: Antibacterial activity against Pseudomonas aeruginosa; format: functional
Acinetobacter baumannii [28] = assay: Antibacterial activity against Acinetobacter baumannii; format: functional
[29] = tested on: Mycobacterium tuberculosis; assay: as §1, with “increase in number of surviving macrophages at 10 to 30 uM” for “bacterial viability”; format: functional, organism-based; details: dose 10-30 µM, time 4.0 day
[30] = target: DNA gyrase subunit A/DNA gyrase subunit B (Mycobacterium tuberculosis (strain ATCC 25618 / H37Rv), UniProt P9WG45+P9WG47); assay: Inhibition of Mycobacterium tuberculosis DNA gyrase using […] DNA as substrate incubated for 30 mins by gel based method; format: protein-complex assay
[31] = Inhibition of Mycobacterium smegmatis DNA gyrase using […] DNA as substrate incubated for 30 mins by gel based method; design: species or system Mycolicibacterium smegmatis
DNA gyrase = DNA gyrase (Escherichia coli, UniProt P0AES4+P0AES6); assay: Inhibition of Escherichia coli DNA gyrase using relaxed pNO1 as substrate measured after 30 mins by SybrGOLD staining based fluorescence microplate reader analysis; format: protein-complex assay
[32] = Inhibition of Escherichia coli DNA topoisomerase IV […] using supercoiled pNO1 as substrate measured after 30 mins by SybrGOLD staining based fluorescence microplate reader analysis
MCF7 = assay: Cytotoxicity against human MCF7 cells assessed as residual activity at 50 uM incubated for 72 hrs by MTS assay; format: functional
hERG (KCNH2) [33] = target: T1, hERG (KCNH2) (Homo sapiens, UniProt Q12809); assay: Inhibition of human ERG expressed in HEK293 cells at 10 uM by whole-cell patch clamp method relative to control; format: toxicity, cell-based; details: HEK293 cells that express hERG
hERG (KCNH2) [34] = target: T1, hERG (KCNH2); assay: Inhibition of human ERG expressed in HEK293 cells at 50 uM by whole-cell patch clamp method relative to control; format: toxicity, cell-based; details: HEK293 cells that express hERG

Sequence of DNA topoisomerase 2-alpha (Homo sapiens) (P11388 whole entry): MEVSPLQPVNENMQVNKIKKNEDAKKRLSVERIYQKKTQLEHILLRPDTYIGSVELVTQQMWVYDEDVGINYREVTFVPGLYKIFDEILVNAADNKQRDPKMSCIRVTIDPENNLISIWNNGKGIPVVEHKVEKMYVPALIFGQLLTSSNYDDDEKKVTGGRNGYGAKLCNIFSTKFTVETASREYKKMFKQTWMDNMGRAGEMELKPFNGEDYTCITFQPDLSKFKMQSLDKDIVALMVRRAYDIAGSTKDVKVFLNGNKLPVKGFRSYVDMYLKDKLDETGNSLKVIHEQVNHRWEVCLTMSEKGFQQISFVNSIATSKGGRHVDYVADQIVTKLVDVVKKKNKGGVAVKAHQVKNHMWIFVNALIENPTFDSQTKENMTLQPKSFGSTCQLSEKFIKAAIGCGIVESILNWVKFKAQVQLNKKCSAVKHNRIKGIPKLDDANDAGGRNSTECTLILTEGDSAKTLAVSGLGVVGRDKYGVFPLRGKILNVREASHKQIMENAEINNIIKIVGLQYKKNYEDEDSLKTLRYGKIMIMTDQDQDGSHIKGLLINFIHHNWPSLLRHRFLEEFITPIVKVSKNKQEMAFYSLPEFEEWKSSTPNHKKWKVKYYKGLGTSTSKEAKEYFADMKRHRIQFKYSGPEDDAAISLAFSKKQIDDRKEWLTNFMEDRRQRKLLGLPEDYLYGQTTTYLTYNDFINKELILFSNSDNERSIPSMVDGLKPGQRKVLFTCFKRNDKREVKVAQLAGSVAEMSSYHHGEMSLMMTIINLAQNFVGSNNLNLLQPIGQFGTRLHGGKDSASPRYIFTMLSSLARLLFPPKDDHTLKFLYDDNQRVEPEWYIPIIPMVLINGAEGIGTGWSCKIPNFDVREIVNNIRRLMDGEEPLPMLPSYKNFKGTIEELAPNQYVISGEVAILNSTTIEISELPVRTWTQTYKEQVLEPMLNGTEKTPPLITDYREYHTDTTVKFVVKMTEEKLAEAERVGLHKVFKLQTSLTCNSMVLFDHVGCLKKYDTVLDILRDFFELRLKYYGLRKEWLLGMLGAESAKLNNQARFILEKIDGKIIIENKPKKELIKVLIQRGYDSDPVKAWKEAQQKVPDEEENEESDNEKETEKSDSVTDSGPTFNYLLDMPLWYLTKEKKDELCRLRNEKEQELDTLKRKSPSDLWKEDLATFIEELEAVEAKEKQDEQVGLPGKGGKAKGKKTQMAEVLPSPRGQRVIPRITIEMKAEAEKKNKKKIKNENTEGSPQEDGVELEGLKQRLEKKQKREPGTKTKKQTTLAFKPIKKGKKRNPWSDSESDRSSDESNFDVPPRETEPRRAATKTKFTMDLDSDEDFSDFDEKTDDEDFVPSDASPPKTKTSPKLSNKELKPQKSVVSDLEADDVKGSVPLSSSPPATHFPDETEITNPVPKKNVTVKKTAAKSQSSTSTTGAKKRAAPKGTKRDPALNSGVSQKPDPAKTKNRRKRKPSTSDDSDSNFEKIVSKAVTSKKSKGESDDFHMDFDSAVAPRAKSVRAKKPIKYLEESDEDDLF
T1 sequence (Q12809 whole entry): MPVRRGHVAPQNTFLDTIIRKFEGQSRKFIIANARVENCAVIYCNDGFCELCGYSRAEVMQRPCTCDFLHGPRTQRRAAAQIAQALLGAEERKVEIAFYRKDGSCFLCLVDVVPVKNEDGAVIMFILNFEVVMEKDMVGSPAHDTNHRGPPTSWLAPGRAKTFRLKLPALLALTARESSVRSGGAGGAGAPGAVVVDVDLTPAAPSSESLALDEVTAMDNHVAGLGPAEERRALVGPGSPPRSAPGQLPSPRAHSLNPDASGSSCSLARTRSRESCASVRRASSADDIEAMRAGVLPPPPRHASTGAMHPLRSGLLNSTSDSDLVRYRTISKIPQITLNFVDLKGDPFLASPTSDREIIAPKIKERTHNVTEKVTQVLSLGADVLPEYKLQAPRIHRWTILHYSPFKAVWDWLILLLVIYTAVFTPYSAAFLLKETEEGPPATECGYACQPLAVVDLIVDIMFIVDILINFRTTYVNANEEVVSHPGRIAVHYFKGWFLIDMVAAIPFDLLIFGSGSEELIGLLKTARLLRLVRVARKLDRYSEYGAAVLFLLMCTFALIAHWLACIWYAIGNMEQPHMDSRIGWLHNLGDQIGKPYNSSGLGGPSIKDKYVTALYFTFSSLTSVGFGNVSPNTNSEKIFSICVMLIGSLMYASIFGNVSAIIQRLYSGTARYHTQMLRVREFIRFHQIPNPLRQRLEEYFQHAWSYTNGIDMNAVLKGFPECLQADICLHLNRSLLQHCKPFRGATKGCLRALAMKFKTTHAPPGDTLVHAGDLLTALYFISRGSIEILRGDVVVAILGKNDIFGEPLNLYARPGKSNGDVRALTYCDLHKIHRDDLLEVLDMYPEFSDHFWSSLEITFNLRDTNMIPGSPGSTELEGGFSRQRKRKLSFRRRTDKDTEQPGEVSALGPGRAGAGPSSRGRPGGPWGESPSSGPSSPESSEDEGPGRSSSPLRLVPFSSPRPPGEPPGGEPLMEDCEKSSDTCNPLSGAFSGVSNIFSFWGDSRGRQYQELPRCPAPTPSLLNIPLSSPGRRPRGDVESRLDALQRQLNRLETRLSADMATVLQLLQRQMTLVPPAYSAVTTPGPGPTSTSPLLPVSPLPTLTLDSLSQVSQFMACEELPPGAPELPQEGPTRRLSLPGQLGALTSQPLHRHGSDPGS
Sequence of DNA gyrase subunit A/DNA gyrase subunit B (P9WG45 whole entry): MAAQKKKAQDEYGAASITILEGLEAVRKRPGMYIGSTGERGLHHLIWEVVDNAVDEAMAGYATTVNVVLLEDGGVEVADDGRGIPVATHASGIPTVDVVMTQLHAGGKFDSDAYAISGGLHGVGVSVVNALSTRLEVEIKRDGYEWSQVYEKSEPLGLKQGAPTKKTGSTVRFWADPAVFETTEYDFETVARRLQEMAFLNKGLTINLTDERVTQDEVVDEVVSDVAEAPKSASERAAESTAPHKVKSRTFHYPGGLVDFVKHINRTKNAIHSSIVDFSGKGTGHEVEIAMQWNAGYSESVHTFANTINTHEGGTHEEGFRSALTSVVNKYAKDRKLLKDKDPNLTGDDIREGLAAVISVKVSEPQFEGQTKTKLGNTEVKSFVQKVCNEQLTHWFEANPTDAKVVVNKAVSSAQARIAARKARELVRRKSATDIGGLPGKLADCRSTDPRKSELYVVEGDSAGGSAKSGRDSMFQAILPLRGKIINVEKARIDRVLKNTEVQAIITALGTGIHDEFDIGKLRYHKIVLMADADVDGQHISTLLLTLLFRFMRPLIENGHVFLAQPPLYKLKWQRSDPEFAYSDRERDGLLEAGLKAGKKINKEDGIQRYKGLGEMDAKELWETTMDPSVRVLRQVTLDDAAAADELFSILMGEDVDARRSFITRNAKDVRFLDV
Sequence of DNA gyrase subunit A/DNA gyrase subunit B (P9WG47 whole entry): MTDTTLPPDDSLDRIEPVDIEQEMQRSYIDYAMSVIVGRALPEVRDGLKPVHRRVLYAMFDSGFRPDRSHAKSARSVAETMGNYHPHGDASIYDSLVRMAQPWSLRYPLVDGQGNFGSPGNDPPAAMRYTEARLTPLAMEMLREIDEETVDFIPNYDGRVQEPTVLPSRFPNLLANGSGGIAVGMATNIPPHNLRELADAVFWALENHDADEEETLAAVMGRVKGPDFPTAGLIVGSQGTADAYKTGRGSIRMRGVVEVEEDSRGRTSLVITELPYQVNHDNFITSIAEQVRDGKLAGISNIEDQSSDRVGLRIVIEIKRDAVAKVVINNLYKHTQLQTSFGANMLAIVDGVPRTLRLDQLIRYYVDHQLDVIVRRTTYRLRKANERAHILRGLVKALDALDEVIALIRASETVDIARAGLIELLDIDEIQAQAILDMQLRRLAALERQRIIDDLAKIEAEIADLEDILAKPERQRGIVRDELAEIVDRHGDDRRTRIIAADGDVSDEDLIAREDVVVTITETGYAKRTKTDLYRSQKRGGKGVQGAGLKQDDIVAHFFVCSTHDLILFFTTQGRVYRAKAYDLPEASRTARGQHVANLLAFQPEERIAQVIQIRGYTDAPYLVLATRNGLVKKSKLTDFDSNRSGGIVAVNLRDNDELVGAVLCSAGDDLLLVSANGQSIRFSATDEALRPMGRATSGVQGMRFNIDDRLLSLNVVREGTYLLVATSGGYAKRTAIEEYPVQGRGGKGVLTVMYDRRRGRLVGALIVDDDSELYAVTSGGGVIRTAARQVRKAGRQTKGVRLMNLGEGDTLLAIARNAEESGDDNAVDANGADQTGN

| SMILES | MIC90 [1] | MIC90 [2] | MIC90 [3] | MIC90 (Escherichia coli [4]) | MIC90 (Staphylococcus aureus) | MIC90 (Pseudomonas aeruginosa [5]) | MIC90 (Acinetobacter baumannii [6]) | MIC90 (Klebsiella pneumoniae) | Activity [7] | Activity [8] | MIC90 (Escherichia coli [13]) | further results |
| --- | --- | --- | --- | --- | --- | --- | --- | --- | --- | --- | --- | --- |
| Cc1[nH]c(C(=O)Nc2nc3c(OC(CN4CCN(C)CC4)c4ccccc4)cc(C(=O)O)cc3s2)c(Cl)c1Cl (centres undefined) | 2.5 µM (≈ 1.47 µg/mL) | 2.5 µM (≈ 1.47 µg/mL) | 20 µM (≈ 11.8 µg/mL) |  |  |  |  |  |  |  |  |  |
| Cc1[nH]c(C(=O)Nc2nc3c(OC(CN(C)C)c4ccccc4)cc(C(=O)O)cc3s2)cc1F (centres undefined) | 1.25 µM (≈ 0.603 µg/mL) | 0.31 µM (≈ 0.15 µg/mL) | 2.5 µM (≈ 1.21 µg/mL) | 133 µM (≈ 64.2 µg/mL) | 33 µM (≈ 15.9 µg/mL) | 33 µM (≈ 15.9 µg/mL) | > 133 µM | 2 µM (≈ 0.965 µg/mL) | 99% | 99% |  | MIC90 (Enterobacter cloacae): > 133 µM |
| Cc1[nH]c(C(=O)Nc2nc3c(OCC(C)N(C)C)cc(C(=O)O)cc3s2)c(Cl)c1Cl (centres undefined) | 10 µM (≈ 4.71 µg/mL) | 0.63 µM (≈ 0.297 µg/mL) | 40 µM (≈ 18.9 µg/mL) |  |  |  |  |  |  |  |  |  |
| Cc1[nH]c(C(=O)Nc2nc3c(OC(C)CN(C)C)cc(C(=O)O)cc3s2)c(Cl)c1Cl (centres undefined) | 0.63 µM (≈ 0.297 µg/mL) | 0.63 µM (≈ 0.297 µg/mL) | 2.5 µM (≈ 1.18 µg/mL) | > 135 µM | > 135 µM | > 135 µM | > 135 µM | 8 µM (≈ 3.77 µg/mL) |  |  | 2 µM (≈ 0.943 µg/mL) | Activity (THP-1 [9]): 34%; Activity (THP-1 [10]): Non-Toxic; Activity [11]: Dose-Dependent Effect; Activity [12]: inactive; MIC90 (Enterobacter cloacae): > 135 µM; MIC (Segatella copri): > 20 µM; MIC [14]: > 20 µM; MIC (Anaerostipes hadrus): > 20 µM; Activity [15]: Non-Toxic; Activity [16]: Non-Toxic; Activity [17]: Non-Toxic; solubility kinetic at 20 h, 100 µM [18]: 55 µM (≈ 25.9 µg/mL); fraction unbound at 4 h, 10 µM [19]: 0.029; fraction unbound at 4 h, 10 µM [20]: 0.047 |
| Cc1[nH]c(C(=O)Nc2nc3c(OC(CN4CCC(N)CC4)c4ccccc4)cc(C(=O)O)cc3s2)c(Cl)c1Cl (centres undefined) | 0.63 µM (≈ 0.371 µg/mL) | 0.63 µM (≈ 0.371 µg/mL) | 1.25 µM (≈ 0.736 µg/mL) |  |  |  |  |  |  |  |  | Activity (Escherichia coli [4]): Active |
| Cc1[nH]c(C(=O)Nc2nc3ccc(C(=O)O)cc3s2)c(Cl)c1Cl |  |  |  |  |  |  |  |  |  |  |  | Activity ([21]; time 6 day): 57%; Activity [22]: 14%; Activity [23]: inactive; Activity (THP-1 [24]): Non-Toxic; Activity (THP-1 [25]): Non-Toxic; pIC50 [26]: 7.61; MIC (Pseudomonas aeruginosa [27]): 8 µg/mL (≈ 21.6 µM); MIC (Acinetobacter baumannii [28]): 4 µg/mL (≈ 10.8 µM) |
| Cc1[nH]c(C(=O)Nc2nc3c(OCc4ccccc4)cc(C(=O)O)cc3s2)c(Cl)c1Cl |  |  |  |  |  |  |  |  |  |  |  | Activity ([21]; time 6.0 day): inactive; pIC50 [26]: 8.29 |
| Cc1[nH]c(C(=O)Nc2nc3c(OC4CCNC4)cc(C(=O)O)cc3s2)c(Cl)c1Cl (centres undefined) | > 20 µM | 10 µM (≈ 4.55 µg/mL) | 2.5 µM (≈ 1.14 µg/mL) | 130 µM (≈ 59.2 µg/mL) | > 130 µM | > 130 µM | > 130 µM | > 130 µM | 102% | 102% | 130 µM (≈ 59.2 µg/mL) |  |
| Cc1[nH]c(C(=O)Nc2nc3c(OC(C)C4CCNCC4)cc(C(=O)O)cc3s2)c(Cl)c1Cl (centres undefined) | 2.5 µM (≈ 1.24 µg/mL) | 2.5 µM (≈ 1.24 µg/mL) | 0.63 µM (≈ 0.313 µg/mL) | > 120 µM | > 120 µM | > 120 µM | > 120 µM | > 120 µM | 96% | 96% | 2 µM (≈ 0.995 µg/mL) | Activity (THP-1 [9]): Non-Toxic; Activity (THP-1 [10]): Non-Toxic; Activity [11]: Dose-Dependent Effect; Activity [29]: Active; MIC (Segatella copri): > 20 µM; MIC [14]: > 20 µM; MIC (Anaerostipes hadrus): > 20 µM; pIC50 [30]: 8.39; pIC50 [31]: 8.24; pIC50 (DNA gyrase): > 8.00; pIC50 [32]: 7.00; Activity (MCF7): 81%; Activity [15]: Non-Toxic; Activity [16]: Non-Toxic; Activity [17]: Non-Toxic; inhibition at 10 µM (hERG (KCNH2) [33]): 4.2%; inhibition at 50 µM (hERG (KCNH2) [34]): 29%; solubility kinetic at 20 h, 100 µM [18]: 1 µM (≈ 0.497 µg/mL) |
